Columns and labels:
Type in all cases: in vivo
Amaranthus retroflexus [1] = test: Herbicidal action, post-emergence, seed trays in climatic chamber (Example B1); conditions: 1000 g/ha, evaluated after 9 days, 10=total damage to plant, 0=no damage to plant
Method: (§1) Seeds of a variety of test species were sown in sterilised standard soil in seed trays each having 96 cells. […] The plants were grown in the climatic chamber after application at (24/19° C., day/night; 13 hours light; 50-60% humidity) and watered twice daily. After 9 days until the test was evaluated (10=total damage to plant, 0=no damage to plant)

Nasturtium officinale = test: as above; conditions: 1000 g/ha, evaluated after 9 days, 10=total damage to plant, 0=no damage to plant
Method: as §1

Solanum nigrum [2] = test: as above; conditions: 1000 g/ha, evaluated after 9 days, 10=total damage to plant, 0=no damage to plant
Method: as §1

Stellaria media = test: as above; conditions: 1000 g/ha, evaluated after 9 days, 10=total damage to plant, 0=no damage to plant
Method: as §1

test plants = test: Herbicidal action, post-emergence (Example B1), all test plants, result in words; conditions: same protocol as Example B1, post-emergence
Method: as §1

Amaranthus retroflexus [3] = test: Herbicidal action, post-emergence, pots in glasshouse (Example B2); conditions: 1000 g/ha, evaluated after 13 days, 10=total damage to plant, 0=no damage to plant
Method: (§2) Seeds of a variety of test species were sown in standard soil in pots. After 8 days cultivation (post-emergence) under controlled conditions in a glasshouse (at 24/16° C., day/night; 14 hours light; 65% humidity), the plants were sprayed with an aqueous spray solution derived from the formulation of the technical active ingredient in acetone/water (50:50) solution containing 0.5% Tween 20 (polyoxyethelyene sorbitan monolaurate, CAS RN 9005-64-5). The test plants were then grown in a glasshouse under controlled conditions in a glasshouse (at 24/16° C., day/night; 14 hours light; 65% humidity) and watered twice daily. After 13 days, the test was evaluated (10=total damage to plant; 0=no damage to plant).

Ipomea hederaceae = test: as above; conditions: 1000 g/ha, evaluated after 13 days, 10=total damage to plant, 0=no damage to plant
Method: as §2

Echinochloa crus-galli = test: as above; conditions: 1000 g/ha, evaluated after 13 days, 10=total damage to plant, 0=no damage to plant
Method: as §2

Setaria faberi = test: as above; conditions: 1000 g/ha, evaluated after 13 days, 10=total damage to plant, 0=no damage to plant
Method: as §2

Solanum nigrum [4] = test: as above; conditions: 1000 g/ha, evaluated after 13 days, 10=total damage to plant, 0=no damage to plant
Method: as §2

| Structure (SMILES) | damage to the test plants (test plants) | AMARE damage to plant (Amaranthus retroflexus [3]) | IPOHE damage to plant (Ipomea hederaceae) | ECHCG damage to plant (Echinochloa crus-galli) | SETFA damage to plant (Setaria faberi) | SOLNI damage to plant (Solanum nigrum [4]) | further results |
| --- | --- | --- | --- | --- | --- | --- | --- |
| O=c1[nH]c2nncnc2c(O)c1-c1c(F)ccc(F)c1Cl [E4] | – | – | – | – | – | – | AMARE damage to plant (Amaranthus retroflexus [1]): 2; NAAOF damage to plant (Nasturtium officinale): 0; SOLNI damage to plant (Solanum nigrum [2]): 4; STEME damage to plant (Stellaria media): 0 |
| O=c1[nH]c2cccnc2c(O)c1-c1c(F)cc(F)cc1F [A9] | little or no damage | – | – | – | – | – | – |
| CC(C)(C)C(=O)Oc1c(-c2c(F)ccc(F)c2Cl)c(=O)[nH]c2ccncc12 [B3] | little or no damage | – | – | – | – | – | – |
| O=c1[nH]c2nc(Cl)ccc2c(O)c1-c1c(F)ccc(F)c1Cl [D14] | – | 4 | 0 | 4 | 0 | 0 | – |
| O=c1[nH]c2ncccc2c(O)c1-c1c(F)ccc(Br)c1Cl [D33] | – | 1 | 7 | 0 | 0 | 3 | – |
| CC(C)C(=O)Oc1c(-c2c(F)ccc(F)c2Cl)c(=O)n(C)c2cccnc12 [A4] | – | – | – | – | – | – | AMARE damage to plant (Amaranthus retroflexus [1]): 5; NAAOF damage to plant (Nasturtium officinale): 6; SOLNI damage to plant (Solanum nigrum [2]): 4; STEME damage to plant (Stellaria media): 4 |
| O=c1[nH]c2ncncc2c(O)c1-c1c(F)cc(F)cc1F [E10] | little or no damage | – | – | – | – | – | – |
| CC(C)(C)C(=O)Oc1c(-c2c(F)ccc(F)c2Cl)c(=O)n(CC(F)F)c2ncccc12 [D10, 2,2-dimethyl-propionic acid 3-(2-chloro-3,6-difluoro-phenyl)-1-(2,2-difluoro-ethyl)-2-oxo-1,2-dihydro-[1,8]naphthyridin-4-yl ester] | – | 7 | 6 | 0 | 0 | 7 | – |
| Cc1cc(C)c(-c2c(O)c3ncnnc3[nH]c2=O)c(C)c1 [E12] | – | 5 | 3 | 10 | 10 | 1 | – |
| O=c1[nH]c2cnccc2c(O)c1-c1c(F)cc(F)cc1F [C3] | little or no damage | – | – | – | – | – | – |
| CC(C)(C)C(=O)Oc1c(-c2c(F)ccc(F)c2Cl)c(=O)[nH]c2nc(Cl)ccc12 [D15] | little or no damage | – | – | – | – | – | – |
| O=c1[nH]c2nnccc2c(O)c1-c1c(F)cccc1Cl [E8] | little or no damage | – | – | – | – | – | – |
| Cn1c(=O)c(-c2c(F)ccc(F)c2Cl)c(O)c2ccc(C(F)(F)F)nc21 [D29] | – | 6 | 7 | 0 | 0 | 4 | – |
| Cn1c(=O)c(-c2c(F)ccc(F)c2Cl)c(OC(=O)C(C)(C)C)c2ccc(C(F)(F)F)nc21 [D30] | – | 0 | 2 | 0 | 0 | 2 | – |
| O=c1[nH]c2nncnc2c(O)c1-c1c(F)cccc1Cl [E7] | little or no damage | – | – | – | – | – | – |
| CCn1c(=O)c(-c2c(F)ccc(Cl)c2Cl)c(O)c2c(OC)ccnc21 [D26] | – | 6 | 6 | 4 | 4 | 6 | – |
| O=c1[nH]c2ncccc2c(O)c1-c1ccc(Cl)cc1Cl [D1, 3-(2,4-dichloro-phenyl)-4-hydroxy-1H-[1,8]naphthyridin-2-one] | little or no damage | – | – | – | – | – | – |
| O=c1[nH]c2nncnc2c(O)c1-c1c(F)cc(F)cc1F [E11] | little or no damage | – | – | – | – | – | – |
| CCn1c(=O)c(-c2c(F)ccc(F)c2Cl)c(OC(=O)C(C)C)c2cncnc21 [E2] | – | 5 | 2 | 2 | 0 | 4 | – |
| COc1cccc(-c2c(O)c3cccnc3[nH]c2=O)c1 [D25] | little or no damage | – | – | – | – | – | – |
| O=c1[nH]c2cccnc2c(O)c1-c1ccccn1 [A8] | little or no damage | – | – | – | – | – | – |
| Cn1c(=O)c(-c2c(F)ccc(F)c2Cl)c(O)c2ccncc21 [C1] | – | 0 | 2 | 0 | 0 | 0 | – |
| Cn1c(=O)c(-c2c(F)ccc(F)c2Cl)c(OC(=O)C(C)(C)C)c2ccc(Cl)nc21 [D16] | – | 2 | 2 | 0 | 0 | 2 | – |

| Structure (SMILES) | damage to the test plants (test plants) | AMARE damage to plant (Amaranthus retroflexus [3]) | IPOHE damage to plant (Ipomea hederaceae) | ECHCG damage to plant (Echinochloa crus-galli) | SETFA damage to plant (Setaria faberi) | SOLNI damage to plant (Solanum nigrum [4]) | further results |
| --- | --- | --- | --- | --- | --- | --- | --- |
| Cn1c(=O)c(-c2c(F)ccc(F)c2Cl)c(O)c2ccc(Cl)nc21 [D22] | – | 2 | 6 | 1 | 0 | 4 | – |
| O=c1[nH]c2cnncc2c(O)c1-c1c(F)cc(F)cc1F [E13] | little or no damage | – | – | – | – | – | – |
| O=c1[nH]c2ncccc2c(O)c1-c1cccnc1 [D11, 4-Hydroxy-3-pyridin-3-yl-1H-[1,8]naphthyridin-2-one] | little or no damage | – | – | – | – | – | – |
| O=c1[nH]c2ncccc2c(O)c1-c1ccccn1 [D12] | little or no damage | – | – | – | – | – | – |
| O=c1c(-c2c(F)ccc(Br)c2Cl)c(O)c2cccnc2n1CC(F)F [D32] | – | 4 | 6 | 1 | 1 | 7 | – |
| Cc1cc(Cl)c2c(O)c(-c3c(F)ccc(F)c3Cl)c(=O)n(C)c2n1 [D18] | – | 2 | 0 | 0 | 2 | 3 | – |
| O=c1[nH]c2ncc(Br)cc2c(O)c1-c1c(F)cccc1F [D27] | little or no damage | – | – | – | – | – | – |
| CC(C)C(=O)Oc1c(-c2c(F)ccc(F)c2Cl)c(=O)n(CC(F)F)c2ncncc12 [E3] | – | 7 | 1 | 0 | 0 | 5 | – |
| CC(C)C(=O)Oc1c(-c2c(F)ccc(Br)c2Cl)c(=O)n(CC(F)F)c2ncccc12 [D23, isobutyric acid 3-(3-bromo-2-chloro-6-fluoro-phenyl)-1-(2,2-difluoro-ethyl)-2-oxo-1,2-dihydro-[1,8]naphthyridin-4-yl ester] | – | 4 | 4 | 1 | 0 | 9 | – |
| Cc1cc(C)c(-c2c(O)c3cccnc3n(C)c2=O)c(C)c1 [D24] | – | 0 | 1 | 0 | 0 | 1 | – |
| CC(C)(C)C(=O)Oc1c(-c2c(F)ccc(F)c2Cl)c(=O)[nH]c2nc(C(F)(F)F)ccc12 [D31] | – | 0 | 1 | 0 | 0 | 0 | – |
| CCOC(=O)Oc1c(-c2c(C)cc(C)cc2C)c(=O)[nH]c2nncnc12 [E9] | – | 0 | 1 | 10 | 9 | 0 | – |
| O=c1[nH]c2ncccc2c(O)c1-c1c(F)ccc(F)c1Cl [D4] | little or no damage | – | – | – | – | – | – |
| O=c1[nH]c2ncc(Br)cc2c(O)c1-c1c(F)cc(F)cc1F [D28] | little or no damage | – | – | – | – | – | – |
| O=c1c(-c2c(F)ccc(F)c2Cl)c(O)c2ccc(Cl)nc2n1CC(F)F [D17] | – | 6 | 5 | 0 | 0 | 6 | – |
| CC(C)C(=O)Oc1c(-c2c(F)ccc(F)c2Cl)c(=O)n(C)c2cnccc12 [C2] | – | 3 | 5 | 0 | 0 | 2 | – |
| CC(=O)Oc1c(-c2c(F)ccc(F)c2Cl)c(=O)[nH]c2nncnc12 [E5] | little or no damage | – | – | – | – | – | – |
| Cc1cc2c(c(Cl)n1)c(O)c(-c1c(F)ccc(F)c1Cl)c(=O)n2C [B4] | – | 0 | 2 | 0 | 0 | 2 | – |
| O=c1[nH]c2ncccc2c(O)c1-c1c(Cl)cccc1Cl [D2] | little or no damage | – | – | – | – | – | – |
| O=c1c(-c2c(F)ccc(F)c2Cl)c(O)c2cccnc2n1CC(F)F [D21, 3-(2-chloro-3,6-difluoro-phenyl)-1-(2,2-difluoro-ethyl)-4-hydroxy-1H-[1,8]naphthyridin-2-one] | – | 10 | 9 | 2 | 1 | 10 | – |
| O=c1[nH]c2ncccc2c(O)c1-c1ccccc1OC(F)(F)F [D3] | little or no damage | – | – | – | – | – | – |
| O=c1[nH]c2ccncc2c(O)c1-c1c(F)ccc(F)c1Cl [B2] | little or no damage | – | – | – | – | – | – |

Source: patent US8557840B2, “Herbicidal compounds” (Syngenta Limited, priority 2008, dated 2013)
